We go through one compound from ChEMBL document CHEMBL1955803, “Preclinical in vivo evaluation of efficacy, pharmacokinetics, and pharmacodynamics of a novel MEK1/2 kinase inhibitor RO5068760 in multiple tumor models” (Mol Cancer Ther, 2010).

Data set [1] concerns the target Dual specificity mitogen-activated protein kinase kinase 1 (Homo sapiens, UniProt Q02750). Briefly: Inhibition of MEK1 in human HT-29 cells assessed as inhibition of ERK phosphorylation by Western blot analysis. The class given is cell-based.
Data set [2] concerns HT-29. In words: Growth inhibition of human HT-29 cells expressing B-Raf V600E mutant by MTT assay. The class given is functional, cell-based. Background: Formazan colour is commonly taken as a measure of viable cells.
Data set [3] relates to HT-29. Briefly: Cell cycle arrest in human HT-29 cells assessed as accumulation at G1 phase. The class given is functional, cell-based.
Data set [4] can be described thus: Antitumor activity against human LOX cells expressing B-Raf V600E mutant xenografted in nude mouse assessed as tumor growth inhibition at 500 mg/kg, po administered weekly once. The class given is functional. The conditions noted are these: read-out: GI. Background: In xenograft studies the graft and the host belong to different species.
The test system of data set [5] is Mus musculus. In words: Inhibition of MEK-mediated ERK phosphorylation in tumor of human LOX cells expressing B-Raf V600E mutant xenografted nude mouse at 100 mg/kg, po after 12 hrs by Western blot analysis relative to control. It counts as functional.
A short description of data set [6]: Plasma concentration in human LOX cells expressing B-Raf V600E mutant xenografted nude mouse at 100 mg/kg, po after 4 hrs. The class given is ADME, organism-based. More on the design: dose 100 mg/kg, route oral.
Data set [7] in a line: Plasma concentration in human LOX cells expressing B-Raf V600E mutant xenografted nude mouse at 100 mg/kg, po after 8 hrs. It counts as ADME, organism-based. Also noted: dose 100 mg/kg, route oral.
The nature of data set [8]: Plasma concentration in human HT-29 cells expressing B-Raf V600E mutant xenografted nude mouse at 100 mg/kg, po after 4 hrs. The class given is ADME, organism-based. Also noted: dose 100 mg/kg, route oral.
The subject of data set [9] is Mus musculus. Briefly: Average drug concentration in human HT-29 cells expressing B-Raf V600E mutant xenografted nude mouse plasma at 25 mg/kg, po bid. It counts as ADME, organism-based. More on the design: dose 25 mg/kg, route oral. The conditions noted are these: in vivo.
Data set [10] in a line: AUC (0 to 12 hrs) in human H460 cells expressing K-Ras Q61H mutant xenografted nude mouse at 25 mg/kg, po bid. The class given is ADME, organism-based. More on the design: time < 12 hr, dose 25 mg/kg, route oral. Conditions: in vivo.
Data set [11] concerns Mus musculus. In words: Average drug concentration in human H460 cells expressing K-Ras Q61H mutant xenografted nude mouse plasma at 50 mg/kg, po bid. Also noted: dose 50 mg/kg, route oral. The conditions noted are these: in vivo. The class given is ADME, organism-based.
The nature of data set [12]: AUC (0 to 24 hrs) in human H460 cells expressing K-Ras Q61H mutant xenografted nude mouse at 200 mg/kg, po qd. It counts as ADME, organism-based. Also noted: time < 24 hr, dose 200 mg/kg, route oral. The conditions noted are these: in vivo.
Data set [13] deals with Mus musculus. In words: Average drug concentration in human H460 cells expressing K-Ras Q61H mutant xenografted nude mouse plasma at 200 mg/kg, po qd. The class given is ADME, organism-based. The conditions noted are these: in vivo. More on the design: dose 200 mg/kg, route oral.
Data set [14] can be described thus: Cmax in human MIAPaCa2 cells expressing K-Ras G12C mutant xenografted nude mouse at 25 mg/kg, po bid. The class given is ADME, organism-based, MIA PaCa-2. Also noted: dose 25 mg/kg, route oral. The conditions noted are these: in vivo.
Data set [15] can be described thus: AUC (0 to 12 hrs) in human MIAPaCa2 cells expressing K-Ras G12C mutant xenografted nude mouse at 100 mg/kg, po bid. More on the design: time < 12 hr, dose 100 mg/kg, route oral. The class given is ADME, organism-based, MIA PaCa-2. Conditions: in vivo.
The nature of data set [16]: Cmax in human MIAPaCa2 cells expressing K-Ras G12C mutant xenografted nude mouse at 200 mg/kg, po qd. It counts as ADME, organism-based, MIA PaCa-2. More on the design: dose 200 mg/kg, route oral. Conditions: in vivo.
Another data set concerns NCI-H460. In words: Antitumor activity against human H460 cells expressing K-Ras Q61H mutant xenografted in nude mouse assessed as tumor growth inhibition at 25 mg/kg, po bid. The class given is functional. Conditions: read-out: GI.
In data set [17] the target is Dual specificity mitogen-activated protein kinase kinase; MEK1/2 (Homo sapiens) (UniProt P36507+Q02750). The conditions noted are these: HT-29, 2 to 10 uM.
Description: Inhibition of MEK1/2 in human HT-29 cells assessed as inhibition of ERK1/2 phosphorylation at 2 to 10 uM by Western blot analysis

pIC50: −log10 of the molar value. Calls of active or inactive are those of the source. The calls are words filed in the database; no cut-off is given here. Where only a bound is given, the exact number is not on record here.

Dual specificity mitogen-activated protein kinase kinase; MEK1/2 (Homo sapiens), sequence (P36507 whole entry, looked up): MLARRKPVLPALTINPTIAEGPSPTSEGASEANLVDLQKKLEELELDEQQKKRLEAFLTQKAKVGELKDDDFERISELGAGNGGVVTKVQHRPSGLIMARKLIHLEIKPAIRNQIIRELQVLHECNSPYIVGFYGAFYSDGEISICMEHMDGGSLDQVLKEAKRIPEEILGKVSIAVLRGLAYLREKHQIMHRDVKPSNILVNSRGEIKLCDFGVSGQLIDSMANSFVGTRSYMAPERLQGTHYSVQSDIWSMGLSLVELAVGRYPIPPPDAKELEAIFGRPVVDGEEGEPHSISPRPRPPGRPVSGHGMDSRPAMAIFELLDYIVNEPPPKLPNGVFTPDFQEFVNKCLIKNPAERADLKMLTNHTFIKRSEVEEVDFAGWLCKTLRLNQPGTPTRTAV
Dual specificity mitogen-activated protein kinase kinase; MEK1/2 (Homo sapiens), sequence (Q02750 whole entry, looked up): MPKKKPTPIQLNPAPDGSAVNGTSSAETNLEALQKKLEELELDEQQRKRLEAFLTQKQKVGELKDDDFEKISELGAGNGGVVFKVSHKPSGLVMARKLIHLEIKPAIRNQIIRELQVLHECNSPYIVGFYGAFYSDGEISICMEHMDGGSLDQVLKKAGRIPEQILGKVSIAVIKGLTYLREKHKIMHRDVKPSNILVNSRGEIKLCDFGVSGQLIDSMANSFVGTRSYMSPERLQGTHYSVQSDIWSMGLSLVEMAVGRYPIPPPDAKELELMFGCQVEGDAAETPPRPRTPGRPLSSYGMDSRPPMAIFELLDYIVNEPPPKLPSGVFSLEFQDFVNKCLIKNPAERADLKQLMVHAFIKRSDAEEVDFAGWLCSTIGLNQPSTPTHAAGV
Dual specificity mitogen-activated protein kinase kinase 1, sequence (Q02750 whole entry): as the sequence (Q02750 whole entry, looked up) above

Usually pIC50 stands for the IC50 on a negative log10 scale, so that one unit is a factor of ten. What is called IC90 is the concentration needed for an effect of 90%. Low readings indicate greater potency, high ones weaker potency. In general, AUC refers to the area under the concentration-time curve, a measure of exposure. Higher therefore signals more exposure. As usually defined, the Cmax is the peak of the concentration-time curve. Consider `C[C@@H](c1ccccc1)[C@@H](C(=O)Nc1ccc(I)cc1F)N1C(=O)N[C@H](c2ccc(OC[C@H](O)CO)cc2)C1=O`, for which the pIC50 in [1] was 7.92; with HT-29 [2], 6.96. The same compound had an IC90 in the data set with HT-29 [2] of 560 nM. Further, the “growth inhibition (GI)” value with HT-29 [2] (TDE = time-dependent effect) is “tde”. In addition, the result in the data set on HT-29 [3] was Active. Also, the inhibition in vivo at 500 mg/kg in [4] was above 100%. In the data set on Mus musculus [5], this compound registered an inhibition in vivo at 100 mg/kg of 12%. In addition, the concentration at 4 h in data set [6] worked out at 4140 ng/mL; in data set [8] it was 6030 ng/mL. This compound returned a concentration at 8 h in data set [7] of 1410 ng/mL. The Cave with Mus musculus [9] amounted to 315 ng/mL; with Mus musculus [11] it was 1942 ng/mL; in the data set on Mus musculus [13], 5083 ng/mL. Also, the AUC at 12 h in [10] worked out at 8800 ng·h/mL; in [15], 32700 ng·h/mL. The same compound returned an AUC at 24 h in [12] of 122 µg·h/mL. Further, the values for the Cmax in data set [14] and in data set [16] were 3960 ng/mL and 15500 ng/mL, respectively. For the same compound, the inhibition in vivo at 25 mg/kg in the data set with NCI-H460 is 64%. Further, the inhibition result in data set [17] is “Active”.
